biological target: T1, PAR1 (Homo sapiens, UniProt P25116); assay: Inhibition of PAR1-mediated platelet aggregation induced by TRAP; assay type: cell-based; design: endogenous in cells; host or cells: washed human blood platelets from volunteer donors; details: washed platelets from healthy volunteer donors, TRAP (thrombin receptor-activating peptide) as agonist, 96-well format, AUC at 650 nm
T1 sequence (P25116 22-425): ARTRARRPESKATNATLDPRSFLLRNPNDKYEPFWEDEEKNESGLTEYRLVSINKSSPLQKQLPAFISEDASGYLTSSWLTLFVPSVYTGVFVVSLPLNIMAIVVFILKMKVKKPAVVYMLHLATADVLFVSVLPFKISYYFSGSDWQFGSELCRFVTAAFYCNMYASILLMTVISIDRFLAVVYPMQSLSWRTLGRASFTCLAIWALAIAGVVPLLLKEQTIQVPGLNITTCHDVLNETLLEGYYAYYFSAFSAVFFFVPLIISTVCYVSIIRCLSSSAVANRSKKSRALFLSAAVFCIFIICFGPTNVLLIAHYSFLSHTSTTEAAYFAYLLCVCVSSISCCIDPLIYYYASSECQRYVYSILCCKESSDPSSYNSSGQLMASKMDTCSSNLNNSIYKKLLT
Method: Inhibition of PAR1-Mediated Platelet Aggregation
The biological testing of the substances took place in platelet aggregation induced by TRAP (thrombin receptor-activating peptide) in 96-well format. For this purpose, blood was taken from healthy volunteer donors in 20 ml syringes containing 2 ml of 3.13% sodium citrate solution. After centrifugation at 150×g for 20 minutes, the platelet-rich plasma (PRP) was separated off and admixed with 1 μl of PGE1 solution (500 μg/ml in ethanol)/ml of PRP. Incubation at RT for 5 minutes was followed by centrifugation at 120×g for 15 minutes to remove the leukocytes. The leukocyte-free PRP was transferred in 5 ml portions into 15 ml PP tubes and centrifuged at 360×g for 15 minutes in order to pellet the platelets. The plasma was then decanted off and the platelet sediment from 5 ml of PRP was resuspended in 1 ml of Tyrode's (120 mM NaCl, 2.6 mM KCl, 12 mM NaHCO3, 0.39 mM NaH2PO4×H2O, 10 mM HEPES, 0.35% BSA, 5.5 mM glucose, pH 7.4) and adjusted with Tyrode's to a platelet count of 3×10^5/microliter (μl). 13 ml of this cell suspension were then mixed with 866 μl of 10 mM CaCl2 solution, and 120 μl thereof were pipetted into each well of a 96-well plate containing 15 μl of the substance to be tested. After incubation at RT in the dark for 30 minutes, 15 μl of a TRAP solution (70-100 μM) were added as agonist, and kinetics were recorded at 650 nm in a SpectraMax 340 at 37° C. for 20 minutes while shaking. The areas under the curves of negative control (Tyrode's/DMSO) and positive control (15 μl of agonist/DMSO) were calculated and the difference was fixed as the 100% value. The substances to be tested were pipetted as serial dilutions in duplicate determination, the AUC was likewise determined for each substance concentration, and the % inhibition of the AUC compared with the control was calculated. On the basis of the % inhibition, the IC50 was calculated by nonlinear regression analysis according to the 4-parameter equation.

Q: Which IC50 does the source give for `CCOc1cc2c(c(F)c1OCC)C(=N)N(CC(=O)c1cc(N(C)C(C)=O)cc(S(F)(F)(F)(F)F)c1)C2` [Example 12, N-[3-[2-(5,6-diethoxy-7-fluoro-1-imino-1,3-dihydroisoindol-2-yl)acetyl]-5-(pentafluorosulfanyl)phenyl]-N-methylacetamide] here?
A: The IC50 was 387 nM.

Q: With `CCOc1cc2c(c(F)c1OCC)C(=N)N(CC(=O)c1cc(OC)cc(S(F)(F)(F)(F)F)c1)C2` [Example 21, 2-(5,6-Diethoxy-7-fluoro-1-imino-1,3-dihydroisoindol-2-yl)-1-[3-methoxy-5-(pentafluorosulfanyl)phenyl]ethanone] as the compound, how does the IC50 read?
A: Its IC50 is 28 nM.

Q: For `CCOc1cc2c(cc1C(=O)NC)C(=N)N(CC(=O)c1cc(NC(C)=O)cc(S(F)(F)(F)(F)F)c1)C2` [Example 8, N-Methyl-2-[2-(3-acetylamino-5-pentafluorosulfanylphenyl)-2-oxoethyl]-6-ethoxy-3-imino-2,3-dihydro-1H-isoindole-5-carboxamide], which IC50 is on record?
A: Its IC50 is 17 nM.

Q: For `CCOc1cc2c(c(F)c1OCC)C(=N)N(CC(=O)c1ccc(S(F)(F)(F)(F)F)cc1N)C2` [Example 19, 1-[2-Amino-4-(pentafluorosulfanyl)phenyl]-2-(5,6-diethoxy-7-fluoro-1-imino-1,3-dihydroisoindol-2-yl)ethanone], which IC50 is on record?
A: The IC50 was 98 nM.

Q: With `CCOc1cc2c(cc1C(=O)NC)C(=N)N(CC(=O)c1cc(N(C)C)cc(S(F)(F)(F)(F)F)c1)C2` [Example 2, N-Methyl-2-[2-(3-dimethylamino-5-pentafluorosulfanylphenyl)-2-oxoethyl]-6-ethoxy-3-imino-2,3-dihydro-1H-isoindole-5-carboxamide] as the compound, how does the IC50 read?
A: The IC50 was 597 nM.

Q: For `CCOc1cc2c(cc1C(=O)NC)C(=N)N(CC(=O)c1cc(N(S(C)(=O)=O)S(C)(=O)=O)cc(S(F)(F)(F)(F)F)c1)C2` [Example 10, N-Methyl-6-ethoxy-3-imino-2-{2-[3-dimethanesulfonylamino-5-(pentafluorosulfanyl)phenyl]-2-oxoethyl}-2,3-dihydro-1H-isoindole-5-carboxamide], which IC50 is on record?
A: The IC50 was 718 nM.

Q: For `CCOc1cc2c(c(F)c1OCC)C(=N)N(CC(=O)c1cc(N3C(=O)CCC3=O)cc(S(F)(F)(F)(F)F)c1)C2` [Example 18, 1-{3-[2-(5,6-Diethoxy-7-fluoro-1-imino-1,3-dihydroisoindol-2-yl)acetyl]-5-pentafluorosulfanylphenyl}pyrrolidine-2,5-dione], which IC50 is on record?
A: Its IC50 is 175 nM.

Q: For `CCOc1cc2c(c(F)c1OCC)C(=N)N(CC(=O)c1cc(N)c(S(F)(F)(F)(F)F)cc1C)C2` [Example 16, 1-[5-Amino-2-methyl-4-(pentafluorosulfanyl)phenyl]-2-(5,6-diethoxy-7-fluoro-1-imino-1,3-dihydroisoindol-2-yl)ethanone], which IC50 is on record?
A: The IC50 was 10600 nM.

Q: Which IC50 does the source give for `CCOc1cc2c(cc1C(=O)NC)C(=N)N(CC(=O)c1cc(NC)cc(S(F)(F)(F)(F)F)c1)C2` [Example 3, N-Methyl-6-ethoxy-3-imino-2-[2-(3-methylamino-5-pentafluorosulfanylphenyl)-2-oxoethyl]-2,3-dihydro-1H-isoindole-5-carboxamide] here?
A: Its IC50 is 2 nM.

biological target: T1, PAR1; assay: PAR1 binding test (radioligand displacement, membrane preparation); design: expressed in transfected cells; host or cells: High Five insect cells (transient expression), membrane preparation; details: human PAR1 receptor expressed in High Five insect cells, membrane 1 mg/ml, radioligand 20 nM, 60 minutes; read-out: Inhibition of binding IC50
Method: The synthesized substances were examined in a PAR1 binding test. This tested whether the substances can inhibit the binding of a radioactively labeled PAR1 agonist known from the literature at the PAR1 receptor (Ho-Sam Ahn, Mol Pharm, 51:350-356, 1997).
The human PAR1 receptor was expressed transiently in High Five insect cells. From these cells, after 48 hours, a membrane preparation was produced by standard methods, aliquoted into 10 mM Tris-HCl; 0.3 mM EDTA; 1 mM EGTA; 250 mM sucrose pH 7.5, and stored at −80° C.
The substances were preincubated with the membrane at RT for 15 minutes, then the radioligand (ALA-(para-F-Phe)-Arg-ChA-homoArg-(3,4-^3H-Tyr)-NH2; approx. 40 Ci/mMol) was added. The end concentration of the radioligand in the test buffer (50 mM Tris-HCl; 10 mM MgCl2; 1 mM EGTA; 0.1% BSA; 2% DMSO) was 20 nM, that of the membrane 1 mg/ml. After an incubation time of 60 minutes, 25 μl of the mixture were transferred to a 96-well MultiScreenHTS FB microtiter filtration plate (from Millipore), which had been pretreated beforehand with a 0.75% aqueous polyethyleneimine solution for 5 hours at RT. Thereafter, with vacuum extraction, each well was washed four times with 300 μl of buffer (50 mM Tris-HCl; 10 mM MgCl2; 1 mM EGTA). The plate was then dried overnight, 100 μl of scintillator per well were added, and the plate was analyzed after 6 hours in a Wallac MicroBeta (from PerkinElmer) liquid scintillation counter. The nonspecific binding was determined in the presence of 100 μM SCH79797 (PAR-1 antagonist; from Tocris, Cat. No. 1592) and subtracted from all measurements. The 100% value used was a control without inhibitor. The % inhibition values of a substance dilution series were used to calculate the IC50 with the aid of nonlinear regression analysis according to the 4-parameter equation.

Q: `CCOc1cc2c(c(F)c1OCC)C(=N)N(CC(=O)c1cc(N3CCOCC3)cc(S(F)(F)(F)(F)F)c1)C2` [Example 30, 2-(5,6-Diethoxy-7-fluoro-1-imino-1,3-dihydroisoindol-2-yl)-1-[3-morpholin-4-yl-5-(pentafluorosulfanyl)phenyl]ethanone] was tested. Which IC50 did it give?
A: Its IC50 is 225 nM.

Q: Which IC50 does the source give for `CCOc1cc2c(c(F)c1OCC)C(=N)N(CC(=O)c1cc(Cl)cc(S(F)(F)(F)(F)F)c1)C2` [Example 27, 1-[3-Chloro-5-(pentafluorosulfanyl)phenyl]-2-(5,6-diethoxy-7-fluoro-1-imino-1,3-dihydroisoindol-2-yl)ethanone] here?
A: The IC50 was 1700 nM.

Q: For `CCOc1cc2c(c(F)c1OCC)C(=N)N(CC(=O)c1cc(NC(C)=O)cc(S(F)(F)(F)(F)F)c1)C2` [Example 14], which IC50 is on record?
A: Its IC50 is 227 nM.

Q: For `CCOc1cc2c(c(F)c1OCC)C(=N)N(CC(=O)c1cc(Br)c(S(F)(F)(F)(F)F)cc1N)C2` [Example 20, 1-[2-Amino-5-bromo-4-(pentafluorosulfanyl)phenyl]-2-(5,6-diethoxy-7-fluoro-1-imino-1,3-dihydroisoindol-2-yl)ethanone], which IC50 is on record?
A: Its IC50 is 128 nM.

Q: How did the IC50 turn out when `CCOc1cc2c(cc1C(=O)NC)C(=N)N(CC(=O)c1cc(NC(=O)C(F)(F)F)cc(S(F)(F)(F)(F)F)c1)C2` [Example 4, N-Methyl-6-ethoxy-3-imino-2-{2-[3-pentafluorosulfanyl-5-(2,2,2-trifluoroacetylamino)phenyl]-2-oxoethyl}-2,3-dihydro-1H-isoindole-5-carboxamide] was run?
A: The IC50 was 4800 nM.

Q: With `CCOc1cc(C(=O)CN2Cc3cc(OCC)c(OCC)c(F)c3C2=N)cc(S(F)(F)(F)(F)F)c1` [Example 24, 2-(5,6-Diethoxy-7-fluoro-1-imino-1,3-dihydroisoindol-2-yl)-1-[3-ethoxy-5-(pentafluorosulfanyl)phenyl]ethanone] as the compound, how does the IC50 read?
A: The IC50 was 512 nM.

Q: `CCOc1cc2c(c(F)c1OCC)C(=N)N(CC(=O)c1cc(NC(=O)CC(C)(C)C)cc(S(F)(F)(F)(F)F)c1)C2` [Example 17, N-{3-[2-(5,6-Diethoxy-7-fluoro-1-imino-1,3-dihydroisoindol-2-yl)acetyl]-5-pentafluorosulfanylphenyl}-3,3-dimethylbutyramide] was tested. Which IC50 did it give?
A: Its IC50 is 360 nM.

Source: patent US8466169B2, “SF5 derivatives as PAR1 inhibitors, production thereof, and use as medicaments” (Sanofi, priority 2008, dated 2013)
